For orientation: EC50 means the concentration giving half of the maximal effect.

Structures can show the parent of a compound that is named as a salt. Bounds are passed on as bounds.

For one test, the system named is human breast cancer cell line T-47D. In words: Caspase cascade activation (DEVD-R110 fluorogenic substrate) in T-47D cells. It is filed as cell-based. The note with it: Homo sapiens, T47D, 24 h, T47D cells, 24 h; read-out: Caspase activation Potency EC50 T47D (24 h). The method, then:
(§1) Human breast cancer cell line T-47D, human lung cancer cell line H1299, human hepatocellular carcinoma cell line SNU398, human colon carcinoma cell line HCT116 were grown according to media component mixtures designated by American Type Culture Collection+10% FCS (Invitrogen Corporation), in a 5% CO2-95% humidity incubator at 37° C. T-47D and H1299 cells were maintained at a cell density between 50 and 80% confluency at a cell density of 0.1 to 0.6×10^6 cells/mL. Cells were harvested at 600×g and resuspended at 0.65×10^6 cells/mL into appropriate media+10% FCS. An aliquot of 22.5 μL of cells was added to a well of a 384-well microtiter plate containing 2.5 μL of a 10% DMSO in RPMI-1640 media solution containing 0.16 to 100 μM of N-(2,5-dimethoxyphenyl)-2-methylthieno[3,2-d]pyrimidin-4-amine or other test compound (0.016 to 10 μM final). An aliquot of 22.5 μL of cells was added to a well of a 384-well microtiter plate containing 2.5 μL of a 10% DMSO in RPMI-1640 media solution without test compound as the control sample. The samples were mixed by agitation and then incubated at 37° C. for 24 h or 48 h in a 5% CO2-95% humidity incubator. After incubation, the samples were removed from the incubator and 25 μL of a solution containing 14 μM of N-(Ac-DEVD)-N′-ethoxycarbonyl-R110 (SEQ ID NO.:1) fluorogenic substrate (Cytovia, Inc.; WO99/18856), 20% sucrose (Sigma), 20 mM DTT (Sigma), 200 mM NaCl (Sigma), 40 mM Na PIPES buffer pH 7.2 (Sigma), and 500 μg/mL lysolecithin (Calbiochem) was added. The samples were mixed by agitation and incubated at room temperature. Using a fluorescent plate reader (Model SPECTRAfluor Plus, Tecan), an initial reading (T=0) was made approximately 1-2 min after addition of the substrate solution, employing excitation at 485 nm and emission at 530 nm, to determine the background fluorescence of the control sample. After the 3 h incubation, the samples were read for fluorescence as above (T=3 h).
(§2) The Relative Fluorescence Unit values (RFU) were used to calculate the sample readings as follows: RFU(T=3h)−Control RFU(T=O)=Net RFU(T=3h)
(§3) The activity of caspase cascade activation was determined by the ratio of the net RFU value for N-(2,5-dimethoxyphenyl)-2-methylthieno[3,2-d]pyrimidin-4-amine or other test compound to that of control samples. The EC50 (nM) was determined by a sigmoidal dose-response calculation (Prism 3.0, GraphPad Software Inc.).
For the molecule `COc1ccc(Cl)cc1Nc1ncnc2ccsc12` [Example 39, N-(5-Chloro-2-methoxyphenyl)thieno[3,2-d]pyrimidin-4-amine], the EC50 is > 10 µM.
The same measure, in the same setting: under `COc1ccc(Nc2nc(C)nc3scc(C)c23)cc1` [Example 13, N-(4-Methoxyphenyl)-2,5-dimethylthieno[2,3-d]pyrimidin-4-amine hydrochloride] stands > 10 µM.
Still for that read-out and setting: under `COc1ccc(OC)c(Nc2nc(C)nc3sc(C)c(C)c23)c1` [Example 29, N-(2,5-Dimethoxy-phenyl)-2,5,6-trimethylthieno[2,3-d]pyrimidin-4-amine hydrochloride] stands > 10 µM; under `COc1ccc(OC)c(Nc2nc(C)nc3scc(C)c23)c1` [Example 7, N-(2,5-Dimethoxyphenyl)-2,5-dimethylthieno[2,3-d]pyrimidin-4-amine hydrochloride], > 10 µM.
Still for that read-out and setting: to `c1nc(Nc2ccc3[nH]ccc3c2)c2sccc2n1` [Example 24, N-(1H-Indol-5-yl)thieno[3,2-d]pyrimidin-4-amine] belongs > 10 µM; to `COc1ccccc1Nc1ncnc2ccsc12` [Example 4, N-(2-Methoxyphenyl)thieno[3,2-d]pyrimidin-4-amine], > 10 µM; to `COc1ccc(N)cc1Nc1ncnc2ccsc12` [Example 72, N-(5-Amino-2-methoxyphenyl)thieno[3,2-d]pyrimidin-4-amine], > 10 µM.
With `COc1ccc(C(=O)O)cc1Nc1ncnc2ccsc12` [Example 41, 4-Methoxy-3-(thieno[3,2-d]pyrimidin-4-ylamino)-benzoic acid], the EC50 is > 10 µM.
On the same count and under the same terms, under `COc1ccc(Nc2ncnc3scc(C)c23)cc1` [Example 23, N-(4-Methoxyphenyl)-5-methylthieno[2,3-d]pyrimidin-4-amine] stands > 10 µM; under `COc1ccc(OC)c(Nc2ncnc3cc(Br)sc23)c1` [Example 20, 6-Bromo-N-(2,5-dimethoxyphenyl)thieno[3,2-d]pyrimidin-4-amine], 0.016 µM; under `Brc1cccc(Nc2ncnc3ccsc23)c1` [Example 25, N-(3-Bromophenyl)thieno[3,2-d]pyrimidin-4-amine hydrochloride], 5.57 µM.

Staying with this test, now noted: Homo sapiens, T47D, 48 h, T-47D cells, 48 h; read-out: Caspase activation Potency EC50 T-47D (48 h).
Take `COc1ccc(Cl)cc1Nc1ncnc2ccsc12` [Example 39, N-(5-Chloro-2-methoxyphenyl)thieno[3,2-d]pyrimidin-4-amine]: the 50% effective concentration (EC50) is 6.9 µM.
On to `COc1ccc(Nc2nc(C)nc3scc(C)c23)cc1` [Example 13, N-(4-Methoxyphenyl)-2,5-dimethylthieno[2,3-d]pyrimidin-4-amine hydrochloride], for which the EC50 is > 10 µM.
The same measure, in the same setting: under `COc1ccc(OC)c(Nc2nc(C)nc3sc(C)c(C)c23)c1` [Example 29, N-(2,5-Dimethoxy-phenyl)-2,5,6-trimethylthieno[2,3-d]pyrimidin-4-amine hydrochloride] stands > 10 µM; under `COc1ccc(OC)c(Nc2nc(C)nc3scc(C)c23)c1` [Example 7, N-(2,5-Dimethoxyphenyl)-2,5-dimethylthieno[2,3-d]pyrimidin-4-amine hydrochloride], > 10 µM.
On the same count and under the same terms, under `c1nc(Nc2ccc3[nH]ccc3c2)c2sccc2n1` [Example 24, N-(1H-Indol-5-yl)thieno[3,2-d]pyrimidin-4-amine] stands > 10 µM; under `COc1ccccc1Nc1ncnc2ccsc12` [Example 4, N-(2-Methoxyphenyl)thieno[3,2-d]pyrimidin-4-amine], > 10 µM; under `COc1ccc(N)cc1Nc1ncnc2ccsc12` [Example 72, N-(5-Amino-2-methoxyphenyl)thieno[3,2-d]pyrimidin-4-amine], > 10 µM.
On the same count and under the same terms, to `COc1ccc(C(=O)O)cc1Nc1ncnc2ccsc12` [Example 41, 4-Methoxy-3-(thieno[3,2-d]pyrimidin-4-ylamino)-benzoic acid] belongs > 10 µM; to `COc1ccc(Nc2ncnc3scc(C)c23)cc1` [Example 23, N-(4-Methoxyphenyl)-5-methylthieno[2,3-d]pyrimidin-4-amine], > 10 µM; to `COc1ccc(OC)c(Nc2ncnc3cc(Br)sc23)c1` [Example 20, 6-Bromo-N-(2,5-dimethoxyphenyl)thieno[3,2-d]pyrimidin-4-amine], 0.037 µM.
As for `Brc1cccc(Nc2ncnc3ccsc23)c1` [Example 25, N-(3-Bromophenyl)thieno[3,2-d]pyrimidin-4-amine hydrochloride], the EC50 was > 10 µM.

In the next test the test system is human lung cancer cell line H1299. In words: Caspase cascade activation in H1299 cells. It is filed as cell-based. As to conditions: NCI-H1299, 24 h, read-out: Caspase activation Potency EC50 H1299 (24 h). The method, then:
as §1, §2, §3
As for `COc1ccc(Cl)cc1Nc1ncnc2ccsc12` [Example 39, N-(5-Chloro-2-methoxyphenyl)thieno[3,2-d]pyrimidin-4-amine], the EC50 was > 10 µM.
The same measure, in the same setting: to `COc1ccc(Nc2nc(C)nc3scc(C)c23)cc1` [Example 13, N-(4-Methoxyphenyl)-2,5-dimethylthieno[2,3-d]pyrimidin-4-amine hydrochloride] belongs > 10 µM; to `COc1ccc(OC)c(Nc2nc(C)nc3sc(C)c(C)c23)c1` [Example 29, N-(2,5-Dimethoxy-phenyl)-2,5,6-trimethylthieno[2,3-d]pyrimidin-4-amine hydrochloride], > 10 µM.
The same measure, in the same setting: to `COc1ccc(OC)c(Nc2nc(C)nc3scc(C)c23)c1` [Example 7, N-(2,5-Dimethoxyphenyl)-2,5-dimethylthieno[2,3-d]pyrimidin-4-amine hydrochloride] belongs > 10 µM; to `c1nc(Nc2ccc3[nH]ccc3c2)c2sccc2n1` [Example 24, N-(1H-Indol-5-yl)thieno[3,2-d]pyrimidin-4-amine], > 10 µM; to `COc1ccccc1Nc1ncnc2ccsc12` [Example 4, N-(2-Methoxyphenyl)thieno[3,2-d]pyrimidin-4-amine], > 10 µM.
Consider `COc1ccc(N)cc1Nc1ncnc2ccsc12` [Example 72, N-(5-Amino-2-methoxyphenyl)thieno[3,2-d]pyrimidin-4-amine], for which the concentration for a half-maximal effect (EC50) was > 10 µM.
On the same count and under the same terms, to `COc1ccc(C(=O)O)cc1Nc1ncnc2ccsc12` [Example 41, 4-Methoxy-3-(thieno[3,2-d]pyrimidin-4-ylamino)-benzoic acid] belongs > 10 µM.
With `COc1ccc(Nc2ncnc3scc(C)c23)cc1` [Example 23, N-(4-Methoxyphenyl)-5-methylthieno[2,3-d]pyrimidin-4-amine], the EC50 was > 10 µM.
The same measure, in the same setting: to `COc1ccc(OC)c(Nc2ncnc3cc(Br)sc23)c1` [Example 20, 6-Bromo-N-(2,5-dimethoxyphenyl)thieno[3,2-d]pyrimidin-4-amine] belongs 0.114 µM.
With `Brc1cccc(Nc2ncnc3ccsc23)c1` [Example 25, N-(3-Bromophenyl)thieno[3,2-d]pyrimidin-4-amine hydrochloride], the EC50 amounted to 5.44 µM.

The subject of a further test is human hepatocellular carcinoma cell line SNU398. In words: Caspase cascade activation in SNU398 cells. It is filed as cell-based. As to conditions: Homo sapiens, SNU-398, 48 h, read-out: Caspase activation Potency EC50 SNU398 (48 h). The method, then:
as §1, §2, §3
As to `COc1ccc(Cl)cc1Nc1ncnc2ccsc12` [Example 39, N-(5-Chloro-2-methoxyphenyl)thieno[3,2-d]pyrimidin-4-amine], the EC50 is > 10 µM.
Still for that read-out and setting: to `COc1ccc(Nc2nc(C)nc3scc(C)c23)cc1` [Example 13, N-(4-Methoxyphenyl)-2,5-dimethylthieno[2,3-d]pyrimidin-4-amine hydrochloride] belongs > 10 µM; to `COc1ccc(OC)c(Nc2nc(C)nc3sc(C)c(C)c23)c1` [Example 29, N-(2,5-Dimethoxy-phenyl)-2,5,6-trimethylthieno[2,3-d]pyrimidin-4-amine hydrochloride], > 10 µM.
On the same count and under the same terms, under `COc1ccc(OC)c(Nc2nc(C)nc3scc(C)c23)c1` [Example 7, N-(2,5-Dimethoxyphenyl)-2,5-dimethylthieno[2,3-d]pyrimidin-4-amine hydrochloride] stands > 10 µM; under `c1nc(Nc2ccc3[nH]ccc3c2)c2sccc2n1` [Example 24, N-(1H-Indol-5-yl)thieno[3,2-d]pyrimidin-4-amine], > 10 µM; under `COc1ccccc1Nc1ncnc2ccsc12` [Example 4, N-(2-Methoxyphenyl)thieno[3,2-d]pyrimidin-4-amine], > 10 µM.
The same measure, in the same setting: under `COc1ccc(N)cc1Nc1ncnc2ccsc12` [Example 72, N-(5-Amino-2-methoxyphenyl)thieno[3,2-d]pyrimidin-4-amine] stands > 10 µM.
In the case of `COc1ccc(C(=O)O)cc1Nc1ncnc2ccsc12` [Example 41, 4-Methoxy-3-(thieno[3,2-d]pyrimidin-4-ylamino)-benzoic acid], the EC50 is > 10 µM.
`COc1ccc(Nc2ncnc3scc(C)c23)cc1` [Example 23, N-(4-Methoxyphenyl)-5-methylthieno[2,3-d]pyrimidin-4-amine]: the 50% effective concentration (EC50) is > 10 µM.
Turning to `COc1ccc(OC)c(Nc2ncnc3cc(Br)sc23)c1` [Example 20, 6-Bromo-N-(2,5-dimethoxyphenyl)thieno[3,2-d]pyrimidin-4-amine], the EC50 is 0.431 µM.
The same measure, in the same setting: to `Brc1cccc(Nc2ncnc3ccsc23)c1` [Example 25, N-(3-Bromophenyl)thieno[3,2-d]pyrimidin-4-amine hydrochloride] belongs > 10 µM.

The next test deals with human colon carcinoma cell line HCT116. Description: Caspase cascade activation in HCT116 cells. It is filed as cell-based. The note with it: Homo sapiens, HCT-116, 48 h, read-out: Caspase activation Potency EC50 HCT116 (48 h). The method, then: as §1, §2, §3
Consider `COc1ccc(Cl)cc1Nc1ncnc2ccsc12` [Example 39, N-(5-Chloro-2-methoxyphenyl)thieno[3,2-d]pyrimidin-4-amine], for which the EC50 was > 10 µM.
As for `COc1ccc(Nc2nc(C)nc3scc(C)c23)cc1` [Example 13, N-(4-Methoxyphenyl)-2,5-dimethylthieno[2,3-d]pyrimidin-4-amine hydrochloride], the EC50 was > 10 µM.
On the same count and under the same terms, to `COc1ccc(OC)c(Nc2nc(C)nc3sc(C)c(C)c23)c1` [Example 29, N-(2,5-Dimethoxy-phenyl)-2,5,6-trimethylthieno[2,3-d]pyrimidin-4-amine hydrochloride] belongs > 10 µM; to `COc1ccc(OC)c(Nc2nc(C)nc3scc(C)c23)c1` [Example 7, N-(2,5-Dimethoxyphenyl)-2,5-dimethylthieno[2,3-d]pyrimidin-4-amine hydrochloride], > 10 µM; to `c1nc(Nc2ccc3[nH]ccc3c2)c2sccc2n1` [Example 24, N-(1H-Indol-5-yl)thieno[3,2-d]pyrimidin-4-amine], > 10 µM.
Same read-out and setting: under `COc1ccccc1Nc1ncnc2ccsc12` [Example 4, N-(2-Methoxyphenyl)thieno[3,2-d]pyrimidin-4-amine] stands > 10 µM; under `COc1ccc(N)cc1Nc1ncnc2ccsc12` [Example 72, N-(5-Amino-2-methoxyphenyl)thieno[3,2-d]pyrimidin-4-amine], > 10 µM.
`COc1ccc(C(=O)O)cc1Nc1ncnc2ccsc12` [Example 41, 4-Methoxy-3-(thieno[3,2-d]pyrimidin-4-ylamino)-benzoic acid]: the EC50 is > 10 µM.
On the same count and under the same terms, under `COc1ccc(Nc2ncnc3scc(C)c23)cc1` [Example 23, N-(4-Methoxyphenyl)-5-methylthieno[2,3-d]pyrimidin-4-amine] stands > 10 µM; under `COc1ccc(OC)c(Nc2ncnc3cc(Br)sc23)c1` [Example 20, 6-Bromo-N-(2,5-dimethoxyphenyl)thieno[3,2-d]pyrimidin-4-amine], 0.341 µM; under `Brc1cccc(Nc2ncnc3ccsc23)c1` [Example 25, N-(3-Bromophenyl)thieno[3,2-d]pyrimidin-4-amine hydrochloride], > 10 µM.
